Experimental findings from patent US9873883B2, “Glyphosate resistant plants and associated methods” (Dow AgroSciences LLC, priority 2012, dated 2018) are described below.

As usually defined, the kcat/Km is the second-order rate constant that governs catalysis at low substrate concentration. As a reminder, the Km is the concentration of substrate that gives half-maximal velocity. Usually IC50 stands for the concentration needed to halve the response being measured.

The subject of this test is bacterial EPSP synthase DGT-12 (GENBANK ZP_01622155.1) variant DGT-12 v6 (G→A at residue 111), SEQ ID NO:7. The test is described as follows: In vitro kinetic assay (inorganic phosphate production, malachite green). In kind it is biochemical. An excerpt:
The novel DGT-14, DGT-12, DGT-18, DGT-29 and DGT-30 enzymes were obtained and the glycine to alanine mutation was introduced into the EPSP synthase enzymes at a location analogous to the G96A location described for the E. coli version of the EPSP synthase enzyme. The DGT-14 protein sequence was modified by introducing an alanine to replace the endogenous glycine of GENBANK ACC NO: ZP_01452683 at amino acid residue 101, thereby resulting in SEQ ID NO:1. The DGT-12 protein sequence was modified by introducing an alanine to replace the endogenous glycine of GENBANK ACC NO: ZP_01622155.1 at amino acid residue 111, thereby resulting in SEQ ID NO:7. The DGT-18 protein sequence was modified by introducing an alanine to replace the endogenous glycine of GENBANK ACC NO: NP_928909.1 at amino acid residue 96, thereby resulting in SEQ ID NO:9. The DGT-29 protein sequence was modified by introducing an alanine to replace the endogenous glycine of GENBANK ACC NO: YP_322772.1 at amino acid residue 96, thereby resulting in SEQ ID NO:11. The DGT-30 protein sequence was modified by introducing an alanine to replace the endogenous glycine of GENBANK ACC NO: ZP_02156189.1 at amino acid residue 96, thereby resulting in SEQ ID NO:13.
The synthesized genes were cloned into the pET28 expression vector.
Recombinant DGT proteins were overexpressed in Rosetta2™ (DE3) cells (Novagen, Madison, Wis.) from the constructs described above. A single colony was used to inoculate 50 mL starter cultures of LB containing chloramphenicol (25 μg/mL) and kanamycin (50 μg/mL) which were cultivated overnight at 37° C. The overnight cultures were used to inoculate 1 L of LB containing chloramphenicol (25 μg/mL) and kanamycin (50 μg/mL). The cultures were grown at 37° C. to an O.D.600=0.6 then placed in an ice water bath for 10 minutes. Expression of the target proteins was achieved by addition of IPTG to a final concentration of 500 μM. Induction was allowed to proceed overnight at 20° C. followed by harvesting via centrifugation at 8,000 rpm for 20 minutes. […]

Regarding `C=C(OP(=O)(O)O)C(=O)O` [PEP, phosphoenolpyruvate], the catalytic efficiency (kcat/Km) (PEP, pH 7.5, 1 mM S3P) came out at 700 M⁻¹ s⁻¹. Besides, under “read-out: Km for PEP, pH 7.5, 1 mM S3P”, the Km came out at 128 µM.
With `O=C(O)CNCP(=O)(O)O` [glyphosate, N-(phosphonomethyl)glycine], the 50% inhibitory concentration (IC50) (at 1 mM PEP, read-out: IC50 (glyphosate)) is 4 mM.
